Results taken from patent publication US8058427B2, “Coumarin compounds and their use for treating cancer” (National Health Research Institutes, priority 2008, dated 2011).

test system: Human cervical carcinoma KB cells; experiment: Growth inhibition assay, KB cells (MTS); assay type: cell-based; details: 72 h, read-out: IC50 (concentration causing 50% cell growth inhibition)
Description: Anticancer activities of the compounds of this invention were evaluated using a growth inhibition assay described in Kuo et al., Cancer Res. 2004, 64(13), 4621-4628.
Human cervical carcinoma KB cells were maintained in plastic dishes in DMEM medium supplemented with 10% fetal bovine serum. For in vitro treatment, tumor cells were seeded in […] of culture medium/well in 96-well plates to a final cell density of 6×10^3 cell/mL and incubated in a CO2 incubator at 37° C. for 24 h. The cells were treated with at least five different concentrations of a test compound, and incubated in a CO2 incubator at 37° C. for 72 h. The number of viable cells was estimated using MTS assay and absorbance was measured at 490 nm. For each test compound, dose-response curves were measured with at least five different drug concentrations, and the concentration causing 50% cell growth inhibition (IC50) compared with the control was calculated.

`O=C(c1ccccc1)c1oc2ccc3c(C(F)(F)F)cc(=O)oc3c2c1-c1ccccc1` [Compound 11] and `O=Cc1cc(=O)oc2c1ccc1oc(C(=O)c3ccccc3)c(-c3ccccc3)c12` [Compound 10] fall in the same range of IC50: 101 to 999 nM for the first, 101 to 999 nM for the second.

Compared with `Cc1ccc(C(=O)c2oc3ccc4c(C)cc(=O)oc4c3c2-c2ccc(Br)cc2)cc1` [Compound 212], `Cc1cc(=O)oc2c1ccc1oc(C(=O)c3ccc(F)cc3)c(-c3ccc(Br)cc3)c12` [Compound 209] is lower in IC50: 1000 to 10000 nM for the first, 101 to 999 nM for the second. The second is the more potent here.

`Cc1cc(=O)oc2c1ccc1oc(C(=O)c3ccccc3)c(-c3cccc4ccccc34)c12` [Compound 206] and `Cc1cc(=O)oc2c1ccc1oc(C(=O)c3ccccc3)c(-c3ccccc3Cl)c12` [Compound 135] fall in the same range of IC50: 101 to 999 nM for the first, 101 to 999 nM for the second.

`Cc1cc(=O)oc2c1ccc1oc(C(=O)c3ccccc3)c(-c3ccc(Cl)c(Cl)c3)c12` [Compound 224] and `COc1ccc(-c2c(C(=O)c3ccccc3)oc3ccc4c(C)cc(=O)oc4c23)cc1` [Compound 248] fall in the same range of IC50: 101 to 999 nM for the first, 101 to 999 nM for the second.

First: Cc1cc(=O)oc2c1ccc1oc(C(=O)c3cc(-c4ccc(Cl)cc4)no3)c(-c3ccccc3)c12 [Compound 112]
Second: Cc1cc(=O)oc2c1ccc1oc(C(=O)c3ccc(Br)cc3)c(-c3ccccc3)c12 [Compound 50]
The IC50 of the first is higher: 1000 to 10000 nM for the first, 101 to 999 nM for the second.

First: Cc1cc(=O)oc2c1ccc1oc(C(=O)c3ccc(C(F)(F)F)cc3)c(-c3ccccc3)c12 [Compound 37]
Second: Cc1cc(=O)oc2c1ccc1oc(C(=O)c3cccc(C(F)(F)F)c3)c(-c3ccccc3)c12 [Compound 36]
The IC50 of the first is higher: 1000 to 10000 nM for the first, 101 to 999 nM for the second. The second is the more potent here.

`Cc1cc(=O)oc2c1ccc1oc(C(=O)c3cccc(OCCN4CCN(C)CC4)c3)c(-c3ccccc3)c12` [Compound 89] and `Cc1cc(=O)oc2c1ccc1oc(C(=O)c3cccc(OCCCN4CCN(C)CC4)c3)c(-c3ccccc3)c12` [Compound 90] fall in the same range of IC50: 101 to 999 nM for the first, 101 to 999 nM for the second.

`Cc1cc(=O)oc2c1ccc1oc(C(=O)c3cc(F)ccc3F)c(-c3ccc(F)cc3)c12` [Compound 221] and `Cc1cc(=O)oc2c1ccc1oc(C(=O)c3cc(F)ccc3F)c(-c3ccccc3)c12` [Compound 61] fall in the same range of IC50: 101 to 999 nM for the first, 101 to 999 nM for the second.

First: COc1ccccc1C(=O)c1oc2ccc3c(C)cc(=O)oc3c2c1-c1ccc(Br)cc1 [Compound 219]
Second: COc1ccc(C(=O)c2oc3ccc4c(C)cc(=O)oc4c3c2-c2ccc(Br)cc2)cc1 [Compound 214]
The IC50 of the first is lower: 101 to 999 nM for the first, 1000 to 10000 nM for the second. The first is the more potent here.

First: Cc1cc(=O)oc2c1ccc1oc(Cc3ccccc3)c(-c3ccccc3)c12 [Compound 173]
Second: Cc1cc(=O)oc2c1ccc1oc(/C(=N/NC(N)=O)c3ccccc3)c(-c3ccccc3)c12 [Compound 174]
The IC50 of the first is lower: 101 to 999 nM for the first, 1000 to 10000 nM for the second. The first is the more potent here.

First: O=C(c1ccccc1)c1oc2ccc3c4ccccc4c(=O)oc3c2c1-c1ccccc1 [Compound 22]
Second: Cc1cc2ccc3oc(C(=O)c4ccccc4)c(-c4ccccc4)c3c2oc1=O [Compound 3]
The IC50 of the first is higher: 1000 to 10000 nM for the first, 101 to 999 nM for the second.

First: Cc1cc(=O)oc2c1ccc1oc(C(=O)c3cccc(OCCCCN4CCN(C)CC4)c3)c(-c3ccccc3)c12 [Compound 91]
Second: Cc1cc(=O)oc2c1ccc1oc(C(=O)c3cccc(OCCCCN4CCCCC4)c3)c(-c3ccccc3)c12 [Compound 85]
The IC50 of the first is higher: 1000 to 10000 nM for the first, 101 to 999 nM for the second. The second is the more potent here.

First: CCCCCc1c(C(=O)c2ccccc2)oc2ccc3c(C)cc(=O)oc3c12 [Compound 156]
Second: CCCCCCc1c(C(=O)c2ccccc2)oc2ccc3c(C)cc(=O)oc3c12 [Compound 157]
The IC50 of the first is higher: 1000 to 10000 nM for the first, 101 to 999 nM for the second. The second is the more potent here.

`Cc1cc(=O)oc2c1ccc1oc(C(=O)c3cccc(OCCCO[Si](C)(C)C(C)(C)C)c3)c(-c3ccccc3)c12` [Compound 190] and `Cc1cc(=O)oc2c1ccc1oc(C(=O)c3cccc(OCCCCCCO[Si](C)(C)C(C)(C)C)c3)c(-c3ccccc3)c12` [Compound 193] fall in the same range of IC50: 101 to 999 nM for the first, 101 to 999 nM for the second.

`Cc1cc(=O)oc2c1ccc1oc(C(=O)c3ccc(Cl)cc3)c(-c3ccc(Br)cc3)c12` [Compound 210] and `Cc1cc(=O)oc2c1ccc1oc(C(=O)c3ccc(Br)cc3)c(-c3ccc(Br)cc3)c12` [Compound 211] fall in the same range of IC50: 1000 to 10000 nM for the first, 1000 to 10000 nM for the second.

`Cc1cc(=O)oc2c1ccc1oc(C(=O)c3cccc(OCCOCCOCCO)c3)c(-c3ccccc3)c12` [Compound 177] and `Cc1cc(=O)oc2c1ccc1oc(C(=O)c3cccc(OCCO)c3)c(-c3ccccc3)c12` [Compound 184] fall in the same range of IC50: 101 to 999 nM for the first, 101 to 999 nM for the second.

`Cc1cc(=O)oc2c1ccc1oc(C(=O)c3cccc([N+](=O)[O-])c3)c(-c3ccccc3)c12` [Compound 66] and `Cc1cc(=O)oc2c1ccc1oc(C(=O)c3cccc(C#N)c3)c(-c3ccccc3)c12` [Compound 42] fall in the same range of IC50: 101 to 999 nM for the first, 101 to 999 nM for the second.

`Cc1cc(=O)oc2c1ccc1oc(C(=O)c3cccs3)c(-c3ccc(Br)cc3)c12` [Compound 254] and `Cc1cc(=O)oc2c1ccc1oc(C(=O)c3ccc(Br)s3)c(-c3ccccc3)c12` [Compound 98] fall in the same range of IC50: 101 to 999 nM for the first, 101 to 999 nM for the second.

Compared with `Cc1cc(=O)oc2c1ccc1oc(C(=O)c3ccc(-c4ccccc4)cc3)c(-c3ccccc3)c12` [Compound 52], `Cc1cc(=O)oc2c1ccc1oc(C(=O)c3ccccc3)c(-c3ccccc3Br)c12` [Compound 138] is lower in IC50: 1000 to 10000 nM for the first, 101 to 999 nM for the second. The second is the more potent here.

`Cc1cc(=O)oc2c1ccc1oc(C(=O)c3ccccc3)c(-c3ccco3)c12` [Compound 159] and `Cc1cc(=O)oc2c1ccc1oc(C(=O)c3ccco3)c(-c3ccccc3)c12` [Compound 92] fall in the same range of IC50: 101 to 999 nM for the first, 101 to 999 nM for the second.

First: Cc1cc(=O)oc2c1ccc1oc(C(=O)c3ccccc3)cc12 [Compound 153]
Second: CC(=O)c1oc2ccc3c(C)cc(=O)oc3c2c1-c1ccccc1 [Compound 119]
The IC50 of the first is lower: 101 to 999 nM for the first, 1000 to 10000 nM for the second. The first is the more potent here.

`Cc1cc(=O)oc2c1ccc1oc(C(=O)c3cccc(OCCN[C@@]45C[C@@H]6C[C@@H](C[C@@](O)(C6)C4)C5)c3)c(-c3ccccc3)c12` [Compound 183] and `Cc1cc(=O)oc2c1ccc1oc(C(=O)c3cccc(OCCCCN(C)C)c3)c(-c3ccccc3)c12` [Compound 88] fall in the same range of IC50: 101 to 999 nM for the first, 101 to 999 nM for the second.

First: COc1ccc(C(=O)c2oc3ccc4c(C)cc(=O)oc4c3c2-c2ccc(Cl)cc2)cc1 [Compound 223]
Second: Cc1ccc(C(=O)c2oc3ccc4c(C)cc(=O)oc4c3c2-c2ccccc2)o1 [Compound 94]
The IC50 of the first is higher: 1000 to 10000 nM for the first, 101 to 999 nM for the second. The second is the more potent here.

`Cc1cc(=O)oc2c1ccc1oc(C(=O)c3ccc(OCCN4CCOCC4)cc3)c(-c3ccccc3)c12` [Compound 265] and `Cc1cc(=O)oc2c1ccc1oc(C(=O)c3cccn3C)c(-c3ccccc3)c12` [Compound 102] fall in the same range of IC50: 1000 to 10000 nM for the first, 1000 to 10000 nM for the second.

`Cc1cc(=O)oc2c1ccc1oc(C(=O)c3ccccc3)c(/C=C/c3ccccc3)c12` [Compound 161] and `Cc1cc(=O)oc2c1ccc1sc(C(=O)c3ccccc3)c(-c3ccccc3)c12` [Compound 26] fall in the same range of IC50: 101 to 999 nM for the first, 101 to 999 nM for the second.

`CCN(CCO)CCCOc1cccc(C(=O)c2oc3ccc4c(C)cc(=O)oc4c3c2-c2ccccc2)c1` [Compound 251] and `Cc1cc(=O)oc2c1ccc1oc(C(=O)c3cccc(OCCCOC4OC(CO)C(O)C(O)C4O)c3)c(-c3ccccc3)c12` (stereo not shown) [Compound 197] fall in the same range of IC50: 101 to 999 nM for the first, 101 to 999 nM for the second.

`Cc1cc(=O)oc2c1cc(C)c1oc(C(=O)c3ccccc3)c(-c3ccccc3)c12` [Compound 8] and `Cc1cc(=O)oc2c1ccc1oc(C(=O)c3ccccc3C(F)(F)F)c(-c3ccccc3)c12` [Compound 35] fall in the same range of IC50: 1000 to 10000 nM for the first, 1000 to 10000 nM for the second.

Compound `CC(=O)OCC1C(OCCOc2cccc(C(=O)c3oc4ccc5c(C)cc(=O)oc5c4c3-c3ccccc3)c2)OC(OC(C)=O)C(OC(C)=O)C1OC(C)=O` (stereo not shown) [Compound 194] has an IC50 of 101 to 999 nM.
